Test results from US5283180A, “Bioluminescence method for the determination of pesticides” (priority 1992, dated 1994).
Where two headings read alike, the source gives them in different places.

Key:
[1] = system: Bee Brain Activity for Ac-luciferin (esterase activity of bee brain extract); assay type: biochemical, honey bees; conditions: for % activity: bee brain extract; for I50 (concentration of inhibitor which gives a 50% decrease in enzymatic activity as measured by bioluminescence): bee brain, Ac-luciferin substrate, 5 min
Method: (§1) 1. Sample is preincubated with a predetermined quantity (dilution 1:200) of brain preparation for 5 minutes.
(§2) 2. Luciferin acetate (200 pmoles) is added to the incubation mixture for additional 5 minutes.
(§3) 3. A portion of this […] mixture (100 μl) is withdrawn and added to the luciferase and ATP reaction mixture (1 ml).
(§4) 4. Bioluminescence reading for 2-5 seconds is monitored.
(§5) 5. The reading of the pesticide sample is compared to the control sample to quantitate the percent inhibition of the sample (see Tables 3, 4, 5 and 6) .
(§6) Insects are stored from at -20° C. or below. Insect heads are collected by dissection with a scalpel and placed in a 50 ml beaker containing approximately 15 ml ice cold 0.07M phosphate buffer, pH 7.0, containing 1 mM EDTA (ethylenediaminetetra acetic acid) and 1 μM phenylthiourea. The insect heads are gently homogenized at low speed in a Tekmar Tissumizer. Aliquots of this crude extract are transferred to microcentrifuge tubes and centrifuged. The supernatant is retained and applied to a sephadex G-25 column equilibrated with 0.07M phosphate buffer, pH 7.0, containing 1 mM EDTA and 1 μM phenylthiourea. Fractions are collected every 2 minutes and monitored for esterase activity using luciferin acetate as a substrate and measuring bioluminescence. Fractions with esterase activity are pooled and used as the insect head extract for use in the pesticide assay.
(§7) Notes: Brain extracts have been prepared primarily from honey bees, but also has been extracted from silkworm and blowflies. Protein concentration of the bee head extract is between 2 to 5 mg/ml. For the assay, 5 to 10 μl is used per assay.
(§8) 1. To 13×100 mm test tubes add 2 ml 0.07M phosphate buffer, pH 7.0. Add 25 μl positive pesticide control (organophosphate and/or carbamate pesticide), 25 μl water to negative control tube and 25 μl of test sample to another tube. If test sample contains solvent other than water, then use this solvent as the negative control tube.
(§9) 2. Add insert brain extract (5 or 10 μl depending on activity) to the 2 ml incubation mixture in step 1, vortex and incubate at 35° C. in temperature block for 10 minutes. Use timer with alarm to monitor time.
(§10) 3. At 10 minutes, add 25 μl 8.25 μM luciferin acetate solution to 2 ml incubation mixture in step 2. Reset timer to zero and restart timer.
(§11) 4. At 5 minutes, take 100 μl portion from each sample. Use separate pipette tip for each sample and add the 100 μl portion to separate 13×100 mm test tubes containing 1 ml of bioluminescence buffer.
(§12) 5. Add 30 μl ATP solution followed by 30 μl luciferase solution to one of the assay tubes in step 4. Vortex and measure bioluminescence for 2 to 5 seconds. Record value and proceed to the next tubes as above.
6. […] In the positive samples the esterolitic activity of the bee extract will be inhibited and less luciferin will form giving a low bioluminescent reading. Divide sample reading or positive control by zero control and multiply to 100 to get percent inhibition.

[2] = system: Silkworm Brain Activities; test: Bioluminescence pesticide assay: inhibition of silkworm brain activities; assay type: biochemical; conditions: pesticide at 25 PPB
Method: as §1, §2, §3, §4, §5, §6, §7, §8, §9, §10, §11, §12
6. Zero control bioluminescence reaction will be uninhibited by pesticide and will have a high bioluminescence reading. In the positive samples the esterolitic activity of the bee extract will be inhibited and less luciferin will form giving a low bioluminescent reading. Divide sample reading or positive control by zero control and multiply to 100 to get percent inhibition.

Row | Compound | % activity ([1]; 12.5 ppb pesticide) [%] | % activity ([1]; 25 ppb pesticide) [%] | I50 (concentration of inhibitor which gives a 50% decrease in enzymatic activity as measured by bioluminescence) [1] [ppb] | % activity ([1]; 6.25 ppb pesticide) [%] | % activity ([1]; 0.625 ppb pesticide) [%] | % activity ([1]; 1.25 ppb pesticide) [%] | % activity ([1]; 2.5 ppb pesticide) [%] | % activity ([1]; 3.125 ppb pesticide) [%] | % Inhibition [2] [%] | also measured
1 | CNC(=O)Oc1cccc2c1OC(C)(C)O2 [Bendocarb] | 50 | 26 | 12 | – | – | – | – | – | – | % activity ([1]; 50 ppb pesticide): 18%; % activity ([1]; 100 ppb pesticide): 11%
2 | CNC(=O)Oc1cccc2c1OC(C)(C)C2 [Carbofuran] | 41 | 32 | 8 | 59 | – | – | – | – | – | % activity ([1]; 50 ppb pesticide): 22%
3 | CCOP(=S)(OCC)Oc1nc(Cl)c(Cl)cc1Cl [Chlorpyrifos] | – | – | 1 | 10 | 68 | 34 | 24 | 13 | – | –
4 | COP(=O)(OC)OC=C(Cl)Cl [DDVP] | – | – | 0.004 | – | – | – | – | – | 100.0 | % activity ([1]; 0.0013 ppb pesticide): 74%; % activity ([1]; 0.0023 ppb pesticide): 49%; % activity ([1]; 0.0028 ppb pesticide): 60%; % activity ([1]; 0.0057 ppb pesticide): 52%; % activity ([1]; 0.011 ppb pesticide): 25%
5 | CCOP(=S)(OCC)Oc1cc(C)nc(C(C)C)n1 [Diazinon] | – | 40 | 15 | – | – | – | – | – | 0 | % activity ([1]; 100 ppb pesticide): 28%
6 | CCOP(=S)(OCC)SCCSCC [Disulfoton] | 35 | 19 | 5 | 47 | – | – | – | 66 | 25 | –
7 | CCOP(=S)(OCC)SCSP(=S)(OCC)OCC [Ethion] | – | – | 2 | – | 71 | 65 | 37 | – | 77.0 | % activity ([1]; 0.3125 ppb pesticide): 84%
8 | CCOC(=O)CC(SP(=S)(OC)OC)C(=O)OCC (stereo not shown) [Malathion] | 50 | 27 | 6 | 53 | – | – | – | – | – | % activity ([1]; 50 ppb pesticide): 27%
9 | CNC(=O)ON=C(C)SC [Methomyl] | 20 | 12 | 4 | 16 | – | – | – | 45 | – | –
10 | COP(=S)(OC)Oc1ccc([N+](=O)[O-])cc1 [Methyl parathion] | – | – | 1 | – | 62 | 40 | 23 | – | 0 | –
11 | COC(=O)C=C(C)OP(=O)(OC)OC [Mevinphos] | – | – | 2 | 9 | 52 | 48 | 24 | 12 | 50 | % activity ([1]; 0.3125 ppb pesticide): 64%
12 | COP(=O)(OC)OC(Br)C(Cl)(Cl)Br (stereo not shown) [Naled] | – | – | 0.05 | – | 29 | – | – | – | 98.0 | % activity ([1]; 0.031 ppb pesticide): 50%; % activity ([1]; 0.125 ppb pesticide): 30%; % activity ([1]; 0.250 ppb pesticide): 25%
13 | CC[S+]([O-])CCSP(=O)(OC)OC (stereo not shown) [Oxydemeton-methyl] | – | 21 | 1 | – | 43 | 47 | 37 | – | 0 | % activity ([1]; 0.3125 ppb pesticide): 90%
14 | CCOP(=S)(OCC)SCSCC [Phorate] | 3 | – | 2 | 8 | – | 70 | 29 | 23 | 50.5 | –
15 | CNC(=O)Oc1ccccc1OC(C)C [Propoxur] | 43 | 44 | 10 | – | – | – | – | – | – | % activity ([1]; 3.1 ppb pesticide): 62%; % activity ([1]; 62.5 ppb pesticide): 29%; % activity ([1]; 125.0 ppb pesticide): 27%
